In ChEMBL document CHEMBL1157522 (Bioorg Med Chem Lett, 2008):
The source made the active and inactive calls. The rule behind the calls is not given here.

Assays:
Coagulation factor X = Coagulation factor X (Homo sapiens, UniProt P00742); experiment: Inhibition of human factor 10a
Trypsin (Homo sapiens) = Trypsin (Homo sapiens) (UniProt P07477+P07478+P35030); experiment: Inhibition of human trypsin; format: protein assay
[1] = target: Coagulation factor IX (Homo sapiens) (UniProt P00740); experiment: Inhibition of human factor 9a
Sequence of Coagulation factor IX (Homo sapiens) (P00740 47-191 limits assumed): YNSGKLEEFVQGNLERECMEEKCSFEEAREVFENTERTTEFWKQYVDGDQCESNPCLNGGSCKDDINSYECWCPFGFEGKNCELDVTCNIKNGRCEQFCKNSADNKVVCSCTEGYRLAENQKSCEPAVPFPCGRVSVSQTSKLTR
Sequence of Coagulation factor IX (Homo sapiens) (P00740 227-461 limits assumed): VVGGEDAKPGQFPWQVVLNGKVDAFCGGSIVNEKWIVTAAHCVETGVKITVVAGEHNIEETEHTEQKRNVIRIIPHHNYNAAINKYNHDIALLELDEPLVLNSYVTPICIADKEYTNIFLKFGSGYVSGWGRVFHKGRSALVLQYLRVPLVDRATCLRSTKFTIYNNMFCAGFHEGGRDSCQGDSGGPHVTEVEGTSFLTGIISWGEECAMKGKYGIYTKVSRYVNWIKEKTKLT

[2] = target: T1, Coagulation factor VII (Homo sapiens) (UniProt P08709); experiment: Inhibition of human factor 7a
T1 sequence (whole entry): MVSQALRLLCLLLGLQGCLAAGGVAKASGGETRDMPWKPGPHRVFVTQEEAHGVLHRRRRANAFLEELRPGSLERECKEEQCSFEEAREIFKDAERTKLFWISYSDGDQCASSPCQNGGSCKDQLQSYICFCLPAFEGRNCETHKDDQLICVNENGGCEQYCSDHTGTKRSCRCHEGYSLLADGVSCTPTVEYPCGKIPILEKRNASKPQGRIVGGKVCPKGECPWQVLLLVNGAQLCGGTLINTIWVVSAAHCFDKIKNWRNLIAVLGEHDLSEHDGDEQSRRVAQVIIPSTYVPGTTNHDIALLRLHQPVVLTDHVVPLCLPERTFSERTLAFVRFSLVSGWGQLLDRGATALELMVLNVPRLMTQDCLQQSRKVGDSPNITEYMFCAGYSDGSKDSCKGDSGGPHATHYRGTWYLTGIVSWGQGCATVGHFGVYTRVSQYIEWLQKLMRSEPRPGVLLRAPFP

[3] = target: Plasminogen (Homo sapiens) (UniProt P00747); experiment: Inhibition of human plasmin
Sequence of Plasminogen (Homo sapiens) (P00747 97-580 limits assumed): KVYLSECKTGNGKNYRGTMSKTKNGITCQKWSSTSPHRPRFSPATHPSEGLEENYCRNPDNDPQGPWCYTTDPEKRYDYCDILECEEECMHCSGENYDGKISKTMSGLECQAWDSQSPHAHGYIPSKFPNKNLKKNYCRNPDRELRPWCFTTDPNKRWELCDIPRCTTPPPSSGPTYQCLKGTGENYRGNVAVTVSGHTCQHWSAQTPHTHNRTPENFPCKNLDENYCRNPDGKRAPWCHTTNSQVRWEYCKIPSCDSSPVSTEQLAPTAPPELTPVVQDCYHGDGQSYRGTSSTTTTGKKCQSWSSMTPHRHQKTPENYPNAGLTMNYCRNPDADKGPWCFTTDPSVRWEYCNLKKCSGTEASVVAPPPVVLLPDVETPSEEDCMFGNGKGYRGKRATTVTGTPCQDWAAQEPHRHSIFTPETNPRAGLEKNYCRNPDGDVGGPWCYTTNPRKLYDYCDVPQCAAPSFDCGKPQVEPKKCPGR
Sequence of Plasminogen (Homo sapiens) (P00747 581-810 limits assumed): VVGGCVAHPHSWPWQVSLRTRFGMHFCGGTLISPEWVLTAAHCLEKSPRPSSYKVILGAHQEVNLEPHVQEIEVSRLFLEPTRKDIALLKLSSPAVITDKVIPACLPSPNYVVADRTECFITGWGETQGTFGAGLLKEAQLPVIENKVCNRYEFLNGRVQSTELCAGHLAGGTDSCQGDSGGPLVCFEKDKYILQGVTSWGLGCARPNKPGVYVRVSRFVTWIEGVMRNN

Homo sapiens = species: Homo sapiens; experiment: Inhibition of human chymotrypsin
[4] = target: Tissue-type plasminogen activator (Homo sapiens) (UniProt P00750); experiment: Inhibition of human tPA
Sequence of Tissue-type plasminogen activator (Homo sapiens) (P00750 36-562 limits assumed): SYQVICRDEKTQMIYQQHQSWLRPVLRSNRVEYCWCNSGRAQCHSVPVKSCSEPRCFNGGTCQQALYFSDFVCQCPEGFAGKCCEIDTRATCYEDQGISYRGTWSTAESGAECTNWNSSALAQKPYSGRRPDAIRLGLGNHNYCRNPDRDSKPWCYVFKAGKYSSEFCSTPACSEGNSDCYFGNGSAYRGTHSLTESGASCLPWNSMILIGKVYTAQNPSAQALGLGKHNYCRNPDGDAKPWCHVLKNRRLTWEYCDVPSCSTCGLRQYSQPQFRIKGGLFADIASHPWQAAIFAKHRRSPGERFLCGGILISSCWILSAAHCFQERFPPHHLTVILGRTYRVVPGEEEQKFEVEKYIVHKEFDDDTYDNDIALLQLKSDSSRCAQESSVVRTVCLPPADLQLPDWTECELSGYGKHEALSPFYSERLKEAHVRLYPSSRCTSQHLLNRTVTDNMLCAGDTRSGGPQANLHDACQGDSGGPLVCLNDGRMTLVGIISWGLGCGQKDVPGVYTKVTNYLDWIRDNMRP

[5] = target: Plasma kallikrein (Homo sapiens) (UniProt P03952); experiment: Inhibition of human plasma kallikrein; format: cell-free
Sequence of Plasma kallikrein (Homo sapiens) (P03952 20-390 limits assumed): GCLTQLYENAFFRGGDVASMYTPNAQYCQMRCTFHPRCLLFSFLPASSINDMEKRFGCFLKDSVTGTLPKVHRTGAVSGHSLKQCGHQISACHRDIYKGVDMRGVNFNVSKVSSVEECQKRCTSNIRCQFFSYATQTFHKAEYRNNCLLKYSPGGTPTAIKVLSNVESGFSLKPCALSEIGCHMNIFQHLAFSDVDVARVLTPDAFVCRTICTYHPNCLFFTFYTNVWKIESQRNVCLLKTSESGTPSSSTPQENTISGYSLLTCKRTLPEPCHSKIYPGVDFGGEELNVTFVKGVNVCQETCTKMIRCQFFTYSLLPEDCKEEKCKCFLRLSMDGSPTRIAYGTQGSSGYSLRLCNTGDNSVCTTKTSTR
Sequence of Plasma kallikrein (Homo sapiens) (P03952 391-638 limits assumed): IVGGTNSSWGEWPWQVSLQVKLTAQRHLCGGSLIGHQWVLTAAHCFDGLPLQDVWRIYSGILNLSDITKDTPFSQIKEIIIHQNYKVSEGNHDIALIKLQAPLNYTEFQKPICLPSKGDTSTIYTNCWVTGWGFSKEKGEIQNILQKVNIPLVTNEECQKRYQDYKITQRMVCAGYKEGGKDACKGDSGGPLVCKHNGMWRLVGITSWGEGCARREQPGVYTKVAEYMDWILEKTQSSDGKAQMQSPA

[6] = target: Vitamin K-dependent protein C (Homo sapiens) (UniProt P04070); experiment: Inhibition of human activated protein C
Sequence of Vitamin K-dependent protein C (Homo sapiens) (P04070 43-197 limits assumed): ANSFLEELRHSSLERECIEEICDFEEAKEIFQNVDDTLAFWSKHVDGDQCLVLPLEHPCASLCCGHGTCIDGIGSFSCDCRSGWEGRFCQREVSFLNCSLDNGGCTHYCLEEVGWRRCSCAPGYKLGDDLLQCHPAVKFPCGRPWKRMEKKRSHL
Sequence of Vitamin K-dependent protein C (Homo sapiens) (P04070 212-461 limits assumed): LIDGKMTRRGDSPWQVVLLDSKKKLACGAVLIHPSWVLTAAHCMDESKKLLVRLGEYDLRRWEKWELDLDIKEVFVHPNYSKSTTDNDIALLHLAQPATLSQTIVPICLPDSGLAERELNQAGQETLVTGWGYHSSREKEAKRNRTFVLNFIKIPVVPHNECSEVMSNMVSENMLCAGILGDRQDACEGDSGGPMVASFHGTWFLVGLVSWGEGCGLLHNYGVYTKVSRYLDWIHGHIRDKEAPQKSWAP

Sequence of Coagulation factor X (P00742 41-179 limits assumed): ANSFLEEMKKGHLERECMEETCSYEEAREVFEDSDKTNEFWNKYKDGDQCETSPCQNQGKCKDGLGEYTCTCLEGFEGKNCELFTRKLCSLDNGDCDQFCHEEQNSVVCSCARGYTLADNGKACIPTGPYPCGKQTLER
Sequence of Coagulation factor X (P00742 235-488 limits assumed): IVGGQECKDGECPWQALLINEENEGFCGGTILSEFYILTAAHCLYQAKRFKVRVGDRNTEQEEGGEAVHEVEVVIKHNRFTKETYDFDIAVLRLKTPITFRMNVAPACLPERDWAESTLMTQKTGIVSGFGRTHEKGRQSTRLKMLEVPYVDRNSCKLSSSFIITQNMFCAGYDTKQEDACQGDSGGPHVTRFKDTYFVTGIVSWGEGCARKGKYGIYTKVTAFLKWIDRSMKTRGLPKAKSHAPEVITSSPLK

Structure (SMILES)	Ki (Coagulation factor X) [nM]	Activity (Trypsin (Homo sapiens))	Activity [1]	Activity [2]	Activity [3]	Activity (Homo sapiens)	Activity [4]	Activity [5]	Activity [6]
COc1ccc(-n2nc(C(F)(F)F)c3c2C(=O)N(c2ccc(C4(C(=O)Nc5nncs5)CC4)cc2)CC3)cc1	1.8	inactive	inactive	inactive	inactive	inactive	inactive	inactive	inactive
COc1ccc(-n2nc(C(F)(F)F)c3c2C(=O)N(c2ccc(C4(CN)CC4)cc2)CC3)cc1	0.57	inactive	inactive	inactive	inactive	inactive	inactive	inactive	inactive
CNCC1(c2ccc(N3CCc4c(C(F)(F)F)nn(-c5ccc(OC)cc5)c4C3=O)cc2)CC1	–	inactive	inactive	inactive	inactive	inactive	inactive	inactive	inactive
COC(=O)C1(c2ccc(N3CCc4c(C(F)(F)F)nn(-c5ccc(OC)cc5)c4C3=O)cc2)CC1	–	inactive	inactive	inactive	inactive	inactive	inactive	inactive	inactive
COc1ccc(-n2nc(C(F)(F)F)c3c2C(=O)N(c2ccc(C4(C#N)CC4)cc2)CC3)cc1	1.8	inactive	inactive	inactive	inactive	inactive	inactive	inactive	inactive
COc1ccc(-n2nc(C(F)(F)F)c3c2C(=O)N(c2ccc(C4(CN5CCOCC5)CC4)cc2)CC3)cc1	–	inactive	inactive	inactive	inactive	inactive	inactive	inactive	inactive
COCC1(c2ccc(N3CCc4c(C(F)(F)F)nn(-c5ccc(OC)cc5)c4C3=O)cc2)CC1	1.6	inactive	inactive	inactive	inactive	inactive	inactive	inactive	inactive
COc1ccc(-n2nc(C(F)(F)F)c3c2C(=O)N(c2ccc(C4(C(=O)Nc5nnn[nH]5)CC4)cc2)CC3)cc1	3	inactive	inactive	inactive	inactive	inactive	inactive	inactive	inactive
COc1ccc(-n2nc(C(F)(F)F)c3c2C(=O)N(c2ccc(-c4ccccc4CNC(C)C)cc2)CC3)cc1	1.4	–	–	–	–	–	–	–	–
COc1ccc(-n2nc(C(F)(F)F)c3c2C(=O)N(c2ccc(C4(Cn5ccnc5C)CC4)cc2)CC3)cc1	–	inactive	inactive	inactive	inactive	inactive	inactive	inactive	inactive
COc1ccc(-n2nc(C(F)(F)F)c3c2C(=O)N(c2ccc(C4(CO)CC4)cc2)CC3)cc1	2.4	inactive	inactive	inactive	inactive	inactive	inactive	inactive	inactive
COc1ccc(-n2nc(C(F)(F)F)c3c2C(=O)N(c2ccc(C4(C(N)=O)CC4)cc2)CC3)cc1	3.3	inactive	inactive	inactive	inactive	inactive	inactive	inactive	inactive
COc1ccc(-n2nc(C(F)(F)F)c3c2C(=O)N(c2ccc(C4(C(=O)N(C)C)CC4)cc2)CC3)cc1	5.8	inactive	inactive	inactive	inactive	inactive	inactive	inactive	inactive
COc1ccc(-n2nc(C(F)(F)F)c3c2C(=O)N(c2ccc(C4(C(=O)N5CCC(O)CC5)CC4)cc2)CC3)cc1	54	inactive	inactive	inactive	inactive	inactive	inactive	inactive	inactive
COc1ccc(-n2nc(C(F)(F)F)c3c2C(=O)N(c2ccc(C4(C(=O)NC5CCCC5)CC4)cc2)CC3)cc1	30	inactive	inactive	inactive	inactive	inactive	inactive	inactive	inactive

The remaining lines, values ahead:

Ki (Coagulation factor X) [nM]	Activity (Trypsin (Homo sapiens))	Activity [1]	Activity [2]	Activity [3]	Activity (Homo sapiens)	Activity [4]	Activity [5]	Activity [6]	Structure (SMILES)
0.042	inactive	inactive	inactive	inactive	inactive	inactive	inactive	inactive	COc1ccc(-n2nc(C(F)(F)F)c3c2C(=O)N(c2ccc(C4(CNC(C)C)CC4)cc2)CC3)cc1
0.3	–	–	–	–	–	–	–	–	COc1ccc(-n2nc(C(F)(F)F)c3c2C(=O)N(c2ccc(-c4ccccc4CN(C)C)cc2)CC3)cc1
0.055	inactive	inactive	inactive	inactive	inactive	inactive	inactive	inactive	COc1ccc(-n2nc(C(F)(F)F)c3c2C(=O)N(c2ccc(C4(CN(C)C(C)=O)CC4)cc2)CC3)cc1
0.054	inactive	inactive	inactive	inactive	inactive	inactive	inactive	inactive	COc1ccc(-n2nc(C(F)(F)F)c3c2C(=O)N(c2ccc(C4(CNc5nccs5)CC4)cc2)CC3)cc1
0.14	inactive	inactive	inactive	inactive	inactive	inactive	inactive	inactive	CCNC(=O)N(C)CC1(c2ccc(N3CCc4c(C(F)(F)F)nn(-c5ccc(OC)cc5)c4C3=O)cc2)CC1
0.14	inactive	inactive	inactive	inactive	inactive	inactive	inactive	inactive	COc1ccc(-n2nc(C(F)(F)F)c3c2C(=O)N(c2ccc(C4(CN5CCC(O)CC5)CC4)cc2)CC3)cc1
0.15	–	–	–	–	–	–	–	–	CNCc1ccccc1-c1ccc(N2CCc3c(C(N)=O)nn(-c4ccc(OC)cc4)c3C2=O)cc1
0.074	inactive	inactive	inactive	inactive	inactive	inactive	inactive	inactive	COc1ccc(-n2nc(C(F)(F)F)c3c2C(=O)N(c2ccc(C4(CN(C)S(C)(=O)=O)CC4)cc2)CC3)cc1
0.038	inactive	inactive	inactive	inactive	inactive	inactive	inactive	inactive	COc1ccc(-n2nc(C(F)(F)F)c3c2C(=O)N(c2ccc(C4(CN5CC[C@@H](O)C5)CC4)cc2)CC3)cc1
< 0.02	inactive	inactive	inactive	inactive	inactive	inactive	inactive	inactive	CCN(CC)CC1(c2ccc(N3CCc4c(C(F)(F)F)nn(-c5ccc(OC)cc5)c4C3=O)cc2)CC1
0.28	–	–	–	–	–	–	–	–	CNCc1ccccc1-c1ccc(N2CCc3c(C(F)(F)F)nn(-c4ccc(OC)cc4)c3C2=O)cc1
